How the values were obtained:
[1] = Stability examination taxifolin: color change of aqueous solutions; format: physicochemical; settings: stored open, protected from light, room temperature
Protocol: In order to investigate the stability of the flavonoid taxifolin and the influence of thiamine and β-CD, experiments were also carried out in this regard. Since taxifolin forms red-brown oligomers upon breakdown, the detection is quite straightforward to carry out. Method: Three aqueous solutions were prepared in beakers containing I) 100 mg taxifolin in 150 ml distilled water II) 100 mg of Taxifolin+13 mg of thiamine HCl in 150 ml distilled water and III) 100 mg taxifolin+13 mg of thiamine HCl+373 mg of β-CD in distilled water. Samples were stored open and protected from light at room temperature and the color of the solution was checked every 24 h.

[2] = Screening of water-soluble polymers / alkylammonium cations: recrystallization of supersaturated taxifolin/β-CD complex solution; format: physicochemical; settings: taxifolin:choline/carnitine cations ratio 1:0.85, 96 h
Protocol: In order to examine which water-soluble polymers are particularly suitable for improving the stability and dissolution capacity of flavonoid-cyclodextrin complexes, a screening was carried out. For this purpose, first, a supersaturated taxifolin/β-CD complex solution was prepared by adding an excess of equimolar taxifolin/β-CD complex and subsequent heating to 35° C. and filtering off.

| Time of color change ([1]; aqueous solution) [h] | Color of solution [1] | SMILES | Recrystallization after 96 h [2] | Remark (change versus reference solution) [2] |
| --- | --- | --- | --- | --- |
| 48 | Red-brown | O=C1c2c(O)cc(O)cc2O[C@H](c2ccc(O)c(O)c2)[C@H]1O [Taxifolin reference, taxifolin] | – | – |
| – | – | C[N+](C)(C)C[C@H](O)CC(=O)[O-].O=C(O)C(O)C(O)C(=O)O [L-Carnitine tartrate, L-carnitine tartrate] | Distinct | No change |

— patent US20230233513A1, “TAXIFOLIN FORMULATION COMPRISING THIAMINE” (Evanium Healthcare GmbH, priority 2020, published 2023)
